Data published in patent US7390923B2, “Propionamide derivatives useful as androgen receptor modulators” (Orion Corporation, priority 2003, dated 2008).

Target: T1, androgen receptor (AR) (Rattus norvegicus, UniProt P15207)
T1 construct: Ventral prostates were obtained form rats castrated 24 h prior to sacrifice; from tissue; host or cells: rat ventral prostate cytosol (castrated rats, charcoal-treated)
T1 sequence (P15207 1-902): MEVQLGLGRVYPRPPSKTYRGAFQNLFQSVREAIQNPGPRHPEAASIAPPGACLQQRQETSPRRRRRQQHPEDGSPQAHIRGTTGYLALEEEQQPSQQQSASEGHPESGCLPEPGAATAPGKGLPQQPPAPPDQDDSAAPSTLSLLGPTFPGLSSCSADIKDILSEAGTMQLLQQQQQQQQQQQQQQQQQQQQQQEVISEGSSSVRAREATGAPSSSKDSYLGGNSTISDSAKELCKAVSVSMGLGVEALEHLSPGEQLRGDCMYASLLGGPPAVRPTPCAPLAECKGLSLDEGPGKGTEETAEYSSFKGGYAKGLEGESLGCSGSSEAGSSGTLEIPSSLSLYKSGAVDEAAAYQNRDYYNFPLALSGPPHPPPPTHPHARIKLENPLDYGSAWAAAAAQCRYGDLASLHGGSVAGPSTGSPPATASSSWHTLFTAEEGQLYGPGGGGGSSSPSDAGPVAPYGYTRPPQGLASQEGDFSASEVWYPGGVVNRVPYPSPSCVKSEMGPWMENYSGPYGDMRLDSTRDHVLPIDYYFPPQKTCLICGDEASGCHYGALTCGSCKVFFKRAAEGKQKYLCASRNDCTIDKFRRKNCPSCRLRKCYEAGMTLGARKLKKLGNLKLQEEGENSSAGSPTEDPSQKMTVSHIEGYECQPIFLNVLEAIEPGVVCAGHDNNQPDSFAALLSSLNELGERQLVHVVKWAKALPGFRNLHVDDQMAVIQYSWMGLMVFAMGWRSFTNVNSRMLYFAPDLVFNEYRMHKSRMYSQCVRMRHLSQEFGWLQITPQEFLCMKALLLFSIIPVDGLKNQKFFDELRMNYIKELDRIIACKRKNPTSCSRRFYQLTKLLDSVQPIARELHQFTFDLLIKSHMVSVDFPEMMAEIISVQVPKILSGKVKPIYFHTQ
Test: AR binding assay, competition with [3H]-mibolerone binding in rat ventral prostate cytosol
Conditions: 1 nM [3H]-mibolerone, overnight at 0° C.; for inhibition at 0.2 µM: test compound 0.2 μM; for inhibition at 2 µM: test compound 2.0 μM
Procedure: Ventral prostates were obtained form rats castrated 24 h prior to sacrifice. Fresh prostate was minced and washed with Buffer A (Schilling and Liao, Prostate, 5:581-588, 1984). The minces were then homogenized in 3× volume of Buffer A containing protease inhibitors (Complete, Mini, EDTA-free Roche). The homogenate was centrifuged at 30000 g for 30 min. The resultant supernatants were treated with 1×volume of dextran-coated charcoal solution (12.5 g activated charcoal, 12.5 g dextran per liter of buffer A) to remove endogenous steroids. The samples were incubated for 5 min and centrifuged at 16000 g for 10 min. Aliquots of the charcoal-treated cytosol were taken for androgen receptor assays. All procedures were carried out at 0-4° C.
Cytosol androgen receptor concentration was determined as described (Isomaa et al., Endocrinology, 111: 833-843, 1982) with minor modifications. Cytosol preparations were prepared as described above, and bound and free steroids were separated by treatment with an equal volume of dextran-charcoal suspension for 5 min at 4° C. followed by centrifugation at 16000 g for 10 min. Bound radioactivity was determined by counting supernatant fractions in 1 ml of OptiPhase HiSafe3 or OptiPhase Supermix (PerkinElmer).
Cytosol preparations were labelled with 1 nM [^3H]-mibolerone overnight at 0° C. (total). To determine AR binding activity of the compounds of the present invention (test compounds), the ability of test compounds to compete with [^3H]7α,17α-dimethyl-17β-hydroxy-4-estren-3-one ([^3H]-mibolerone) binding was studied. 1 nM [^3H]-mibolerone and test compounds in two concentrations (0.2 and 2 uM) were incubated overnight at 0° C. To determine non-specific binding, parallel incubations were carried out using 1 nM concentration [^3H]-mibolerone with 500-fold molar excess of unlabelled testosterone. Two to four replicates were used for each sample. After incubation, bound and free steroids were separated as described above and bound radioactivity was determined. The ability of the test compounds to bind AR is reported as reduction in bound radioactivity obtained with 1 nM [^3H]-mibolerone. The results (% inhibition) were calculated as: % inhibition=100−(100×(averagetest compound/averagetotal)).

SMILES: Cc1cc([N+](=O)[O-])ccc1NC(=O)C(C)(O)COc1ccc(C#N)c(F)c1 (stereo not shown) [Example 64, 3-(4-Cyano-3-fluorophenoxy)-2-hydroxy-2-methyl-N-(2-methyl-4-nitrophenyl)propionamide]
- inhibition at 0.2 µM: 79%
- inhibition at 2 µM: 89%

SMILES: CC(=O)Nc1ccc(OCC(C)(O)C(=O)Nc2ccc([N+](=O)[O-])c(C)c2)cc1F (stereo not shown) [Example 2, 3-(4-Acetylamino-3-fluorophenoxy)-2-hydroxy-2-methyl-N-(3-methyl-4-nitrophenyl)propionamide]
- inhibition at 0.2 µM: 93%
- inhibition at 2 µM: 100%

SMILES: Cc1cc(NC(=O)C(C)(O)COc2ccc3c(c2)OCO3)ccc1[N+](=O)[O-] (stereo not shown) [Example 26, 3-(Benzo[1,3]dioxol-5-yloxy)-2-hydroxy-2-methyl-N-(3-methyl-4-nitrophenyl)propionamide]
- inhibition at 0.2 µM: 62%
- inhibition at 2 µM: 92%

SMILES: Cc1cc(NC(=O)C(C)(O)COc2ccc(Br)cc2)ccc1[N+](=O)[O-] (stereo not shown) [Example 24, 3-(4-Bromophenoxy)-2-hydroxy-2-methyl-N-(3-methyl-4-nitrophenyl)propionamide]
- inhibition at 0.2 µM: 75%
- inhibition at 2 µM: 93%

SMILES: Cc1cc(NC(=O)C(C)(O)COc2cccc(F)c2)ccc1[N+](=O)[O-] (stereo not shown) [Example 18, 3-(3-Fluorophenoxy)-2-hydroxy-2-methyl-N-(3-methyl-4-nitrophenyl)propionamide]
- inhibition at 0.2 µM: 90%
- inhibition at 2 µM: 99%

SMILES: Cc1cc(NC(=O)C(C)(O)COc2c(Cl)cccc2Cl)ccc1[N+](=O)[O-] (stereo not shown) [Example 21, 3-(2,6-Dichlorophenoxy)-2-hydroxy-2-methyl-N-(3-methyl-4-nitrophenyl)propionamide]
- inhibition at 0.2 µM: 26%
- inhibition at 2 µM: 91%

SMILES: Cc1cc(NC(=O)C(C)(O)CNc2ccc(C#N)cc2)ccc1[N+](=O)[O-] (stereo not shown) [Example 55, 3-(4-Cyanophenylamino)-2-hydroxy-2-methyl-N-(3-methyl-4-nitrophenyl)propionamide]
- inhibition at 0.2 µM: 87%
- inhibition at 2 µM: 99%

SMILES: Cc1cc(NC(=O)[C@@](C)(O)COc2ccc(C#N)c(F)c2)ccc1[N+](=O)[O-] [Example 43, (2S)-3-(4-Cyano-3-fluorophenoxy)-2-hydroxy-2-methyl-N-(3-methyl-4-nitrophenyl)propionamide]
- inhibition at 0.2 µM: 95%
- inhibition at 2 µM: 99%

SMILES: COc1ccc(OCC(C)(O)C(=O)Nc2ccc([N+](=O)[O-])c(C)c2)cc1OC (stereo not shown) [Example 27, 3-(3,4-Dimethoxyphenoxy)-2-hydroxy-2-methyl-N-(3-methyl-4-nitrophenyl)propionamide]
- inhibition at 0.2 µM: 34%
- inhibition at 2 µM: 89%

SMILES: Cc1cc(NC(=O)C(C)(O)COc2ccc(C#N)c(Cl)c2)ccc1[N+](=O)[O-] (stereo not shown) [Example 63, 3-(3-Chloro-4-cyanophenoxy)-2-hydroxy-2-methyl-N-(3-methyl-4-nitrophenyl)propionamide]
- inhibition at 0.2 µM: 92%
- inhibition at 2 µM: 98%

SMILES: Cc1cc(NC(=O)C(C)(O)COc2ccc(Cl)c([N+](=O)[O-])c2)ccc1[N+](=O)[O-] (stereo not shown) [Example 44, 3-(4-Chloro-3-nitrophenoxy)-2-hydroxy-2-methyl-N-(3-methyl-4-nitrophenyl)propionamide]
- inhibition at 0.2 µM: 83%
- inhibition at 2 µM: 100%

SMILES: CC(O)(COc1ccc(C#N)c(F)c1)C(=O)Nc1ccc([N+](=O)[O-])c(C=O)c1 (stereo not shown) [Example 66, 3-(4-Cyano-3-fluorophenoxy)-N-(3-formyl-4-nitrophenyl)-2-hydroxy-2-methylpropionamide]
- inhibition at 0.2 µM: 69%
- inhibition at 2 µM: 93%

SMILES: CC(=O)Nc1ccc(OC[C@](C)(O)C(=O)Nc2ccc([N+](=O)[O-])c(C)c2)cc1F [Example 4, (2S)-3-(4-Acetylamino-3-fluorophenoxy)-2-hydroxy-2-methyl-N-(3-methyl-4-nitrophenyl)propionamide]
- inhibition at 0.2 µM: 90%
- inhibition at 2 µM: 88%

SMILES: Cc1cc(NC(=O)C(C)(O)COc2ccc(C(=O)c3ccc(Cl)cc3)cc2)ccc1[N+](=O)[O-] (stereo not shown) [Example 36, 3-[4-(4-Chlorobenzoyl)phenoxy]-2-hydroxy-2-methyl-N-(3-methyl-4-nitrophenyl)propionamide]
- inhibition at 0.2 µM: 3%
- inhibition at 2 µM: 50%

SMILES: Cc1cc(NC(=O)C(C)(O)COc2ccc(OCCCl)cc2)ccc1[N+](=O)[O-] (stereo not shown) [Example 80, 3-[4-(2-Chloroethoxy)phenoxy]-2-hydroxy-2-methyl-N-(3-methyl-4-nitrophenyl)propionamide]
- inhibition at 0.2 µM: 87%
- inhibition at 2 µM: 99%

SMILES: Cc1cc(NC(=O)C(C)(O)COc2ccc(F)c(F)c2)ccc1[N+](=O)[O-] (stereo not shown) [Example 28, 3-(3,4-Difluorophenoxy)-2-hydroxy-2-methyl-N-(3-methyl-4-nitrophenyl)propionamide]
- inhibition at 0.2 µM: 90%
- inhibition at 2 µM: 88%

SMILES: Cc1cc(NC(=O)C(C)(O)COc2cc(C)c(Cl)c(C)c2Cl)ccc1[N+](=O)[O-] (stereo not shown) [Example 29, 3-(2,4-Dichloro-3,5-dimethylphenoxy)-2-hydroxy-2-methyl-N-(3-methyl-4-nitrophenyl)propionamide]
- inhibition at 0.2 µM: 92%
- inhibition at 2 µM: 90%

SMILES: Cc1cc(NC(=O)C(C)(O)CNc2ccc(C#N)c(Cl)c2)ccc1[N+](=O)[O-] (stereo not shown) [Example 56, 3-(3-Chloro-4-cyanophenylamino)-2-hydroxy-2-methyl-N-(3-methyl-4-nitrophenyl)propionamide]
- inhibition at 0.2 µM: 90%
- inhibition at 2 µM: 95%

SMILES: CC(=O)Nc1ccc(OCC(C)(O)C(=O)Nc2ccc([N+](=O)[O-])c(C)c2)cc1C(F)(F)F (stereo not shown) [Example 31, 3-(4-Acetylamino-3-trifluoromethylphenoxy)-2-hydroxy-2-methyl-N-(3-methyl-4-nitrophenyl)propionamide]
- inhibition at 0.2 µM: 18%
- inhibition at 2 µM: 75%

SMILES: Cc1cc(NC(=O)C(C)(O)COc2ccc(CCO)cc2)ccc1[N+](=O)[O-] (stereo not shown) [Example 20, 2-Hydroxy-3-[4-(2-hydroxyethyl)phenoxy]-2-methyl-N-(3-methyl-4-nitrophenyl)propionamide]
- inhibition at 0.2 µM: 13%
- inhibition at 2 µM: 83%
